The values that follow come from PubChem BioAssay (NCI).

Common to all, as to test: NCI anticancer screen, dose series, 48 h
The subject of assay [1] is CAKI-1 renal.
In assay [2] the test system is HT29 colon.
The test system of assay [3] is HCT-15 colon.
Assay [4] has as its system MALME-3M melanoma.
Assay [5] has as its system SR leukemia.
The subject of assay [6] is RXF 393 renal.
For assay [7], the system named is MCF7 breast.
In assay [8] the test system is RPMI-8226 leukemia.
For assay [9], the system named is SF-539 CNS.
Assay [10] has as its system SN12C renal.

The structures appear in SMILES notation.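 Growth conditions: 96-well plates. Treatment: test compound, 48 hours, 5 concentrations. Analysis: linear interpolation between bracketing concentrations; unreached endpoints set to highest concentration. Here, GI50 denotes the concentration required for 50% inhibition of growth. TGI: total growth inhibition.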

For `CC#CC(=O)N1CC[C@@H](n2c(=O)n(-c3ccc(Oc4ccccc4)cc3)c3c(N)ncnc32)C1`, the GI50 was 13.8 µM in [1]; 34.7 µM in [2]; 26.3 µM in assay [3]; 18 µM in assay [4]; 14.3 µM in [5]; 37.3 µM in assay [6]. Further, the GI50 in [7] was 23.5 µM; in [8], 14.7 µM; in [9], 25 µM; in [10], 20.8 µM. In addition, the TGI in [1], in assay [2], in [3], in [4], in assay [5] and in assay [6] was above 100 µM throughout. The TGI in [7] is above 100 µM; in assay [8], 66.3 µM; in assay [9] it was above 100 µM; in assay [10], above 100 µM.
In the case of `Fc1cccc(-c2[nH]nc3nc(Nc4cccnc4)sc23)c1`, the GI50 in [1] was 3.72 µM; in assay [3], 0.948 µM; in [4], 39.8 µM; in assay [5] it was 0.979 µM; in assay [6], 3.1 µM; in assay [7], 0.708 µM. For the same compound, the values for the GI50 in assay [8], in assay [9] and in assay [10] were 5.79 µM, 3.02 µM and above 100 µM, respectively. In addition, the TGI in [1], in [3], in assay [4], in assay [5], in assay [6] and in [7] was above 100 µM in each case. Besides, the TGI in assay [8], in [9] and in assay [10] was above 100 µM each time.
`Cc1ccc2c(c1)C=CC(C#N)N2C(=O)Oc1ccccc1` (centres undefined): the TGI in [1] was above 100 µM; in assay [2] it was 35.3 µM; in assay [3] it was 57.2 µM; in assay [4], above 100 µM; in assay [5] it was 46.8 µM; in [6], above 100 µM. The TGI in assay [7] is 40.2 µM; in assay [8] it was 52.6 µM; in [9], above 100 µM; in assay [10], above 100 µM.
For the compound `N#Cc1nn(-c2cc(=O)[nH]c3ccc(Br)cc23)c(N)c1C#N`, the GI50 is above 100 µM in [1]; above 100 µM in [2]; above 100 µM in assay [3]; above 100 µM in assay [4]; 74.2 µM in assay [5]; above 100 µM in assay [6]. The GI50 in assay [7] is 64.1 µM; in assay [8], above 100 µM; in assay [9] it was 51.7 µM; in [10], above 100 µM. Besides, the TGI in [1], in assay [2], in assay [3], in assay [4], in [5] and in assay [6] was above 100 µM throughout. Also, the TGI in assay [7], in assay [8], in assay [9] and in [10] was above 100 µM in each case.
Turning to `C=C(C)[C@@H]1CC[C@]2(C(N)=O)CC[C@]3(C)[C@H](CC[C@@H]4[C@@]5(C)C/C(=C/c6cccnc6)[C@H](O)C(C)(C)[C@@H]5CC[C@]43C)[C@@H]12`, the GI50 in [1] is 2.15 µM; in assay [2], 3.68 µM; in [3], 2.6 µM; in assay [4], 4.91 µM; in [5], 4.31 µM; in [6], 3.61 µM. The GI50 in assay [7] was 2.68 µM; in [8], 2.5 µM; in [9], 4.89 µM; in assay [10], 4.82 µM. In addition, the TGI is 28.4 µM in assay [1]; above 100 µM in assay [2]; above 100 µM in [3]; above 100 µM in assay [4]; above 100 µM in assay [5]; 52.5 µM in assay [6]. For the same compound, the TGI in assay [7] is above 100 µM; in [8], 48.3 µM; in assay [9], above 100 µM; in assay [10] it was above 100 µM.
For the compound `COc1cnc2c(c1)C(=O)c1c-2n(CCCNC(C)C)c(=O)c2cc([N+](=O)[O-])ccc12`, the GI50 was 0.0314 µM in assay [1]; 0.0364 µM in [2]; 0.124 µM in [3]; 0.118 µM in [4]; 0.0562 µM in assay [6]; 0.0115 µM in [7]. Further, the GI50 in [8] is 0.0487 µM; in assay [9] it was 0.0519 µM; in assay [10], 0.0393 µM. For the same compound, the TGI came out at 0.191 µM in [1]; 1.01 µM in assay [2]; 0.402 µM in assay [3]; 0.356 µM in assay [4]; 0.226 µM in assay [5]; 1.38 µM in [6]. The TGI in assay [7] came to 1.07 µM; in assay [8] it was 0.738 µM; in [9] it was 0.204 µM; in assay [10], 0.438 µM.
In the case of `C/C(=C\c1ccn(-c2ccc(N)cc2F)n1)[C@@H]1C[C@@H]2O[C@]2(C)CCC[C@H](C)[C@H](O)[C@@H](C)C(=O)C(C)(C)[C@@H](O)CC(=O)O1`, the GI50 was 0.123 µM in [1]; 0.0173 µM in assay [2]; 0.0226 µM in assay [3]; 0.0236 µM in assay [5]; 0.0286 µM in assay [6]; below 0.0119 µM in assay [7]. Also, the GI50 was 0.0204 µM in [8], 0.0352 µM in [9] and 0.0768 µM in assay [10]. Moreover, the TGI is above 50 µM in [1]; above 29 µM in assay [2]; above 50 µM in [3]; above 50 µM in assay [5]; 0.404 µM in assay [6]; above 50 µM in [7]. Also, the TGI in [8] is above 50 µM; in [9], 0.296 µM; in assay [10], above 50 µM.
For `COc1ccc2nc(-c3cc4c([nH]c5ccccc54)c(-c4ccc(F)c(F)c4)n3)[nH]c2c1`, the GI50 is 2.41 µM in [1]; 3.74 µM in assay [2]; 3.41 µM in [3]; 16.3 µM in assay [4]; 1.97 µM in [5]; 3.46 µM in assay [6]. In addition, the GI50 in assay [7] is 3.23 µM; in [8] it was 1.55 µM; in assay [9], 15.5 µM; in assay [10], 3.97 µM. For the same compound, the TGI in assay [1] was 8.97 µM; in assay [2], 13 µM; in [3], 16.7 µM; in [4], 34.3 µM; in assay [5], 6.7 µM; in assay [6], 13.1 µM. The TGI in [7] was determined as 17.1 µM; in assay [8], 4.29 µM; in assay [9], 34.6 µM; in [10] it was 23.5 µM.
Consider `CCN(CC)CC[n+]1cc2cc(OC)c(OC)cc2c2ccc3cc4c(cc3c21)OCO4`, for which the GI50 is 1.99 µM in [1]; 0.321 µM in assay [2]; 1.68 µM in assay [3]; 1.1 µM in assay [4]; 0.248 µM in assay [5]; 0.783 µM in assay [6]. Also, the GI50 in [7] was 0.317 µM; in assay [8], 0.303 µM; in assay [9], 1.12 µM; in [10], 0.309 µM. Further, the TGI in assay [1] was 14.3 µM; in assay [2], 1.36 µM; in assay [3], 4.51 µM; in assay [4], 2.5 µM; in assay [5], 2.12 µM; in [6] it was 2.45 µM. In addition, the TGI is 2.41 µM in assay [7], 1.73 µM in assay [8], 3.16 µM in assay [9] and 1.21 µM in assay [10].
For `O=C(O)CCSC(=S)Nc1ccc([N+](=O)[O-])cc1`, the TGI is above 100 µM in [1]; above 100 µM in [2]; above 100 µM in assay [3]; above 100 µM in [4]; 52.9 µM in assay [5]; above 100 µM in assay [6]. In addition, the TGI in [7] is above 100 µM; in assay [8] it was above 77.2 µM; in assay [9], above 75.5 µM; in assay [10], above 100 µM.
Turning to `COc1ccc(C2CC(=O)c3c(O)c(OC)c(OC)c(OC)c3O2)cc1O` (centres undefined), the GI50 was 0.43 µM in assay [1]; 3.4 µM in [2]; 0.0459 µM in assay [3]; 32.8 µM in [4]; 0.0467 µM in assay [5]; 0.124 µM in [7]. Moreover, the GI50 was 0.286 µM in [8], 0.0666 µM in assay [9] and 1.1 µM in assay [10]. Also, the TGI in [1] is above 100 µM; in assay [2], above 64.5 µM; in assay [3], above 100 µM; in [4] it was above 100 µM; in [5] it was above 100 µM; in assay [7] it was above 100 µM. The figures for the TGI in [8], in [9] and in [10] were above 77.5 µM, above 100 µM and above 100 µM, respectively.
For `CCOC(=O)N1C=CC(=C2C(=C3C=CN(C(=O)OCC)C=C3)C(=C3C=CN(C(=O)OCC)C=C3)C2=C2C=CN(C(=O)OCC)C=C2)C=C1`, the TGI in assay [1] was 50.6 µM; in [2], above 100 µM; in [3], 44.1 µM; in [4], 64 µM; in [5], 26.3 µM; in [6] it was above 100 µM. The values for the TGI in assay [7], in [9] and in assay [10] were above 100 µM, above 100 µM and 92.4 µM, respectively.
On to `Clc1ccc2c(NCCNc3nc(N4CCCC4)nc4ccccc34)ccnc2c1`, for which the GI50 in assay [2] is 0.0943 µM; in [3] it was 0.254 µM; in [4] it was 1.91 µM; in [5], 0.365 µM; in [6] it was 1.23 µM; in [7] it was 0.156 µM. For the same compound, the GI50 in [8] is 1.76 µM; in assay [9], 1.76 µM; in assay [10] it was 1.16 µM. In addition, the TGI in assay [2] is 1.39 µM; in assay [3], 2.92 µM; in [4], 3.6 µM; in assay [5] it was 2.36 µM; in assay [6] it was 2.63 µM; in assay [7] it was 3.86 µM. Also, the TGI in [8] was 4.96 µM; in [9], 3.25 µM; in assay [10], 3.3 µM.
As to `COc1ccc2c(c1)C(=O)c1c-2c(NCCN(C)C)nc2ccccc12`, the GI50 was 0.373 µM in [1]; 4.41 µM in [2]; 2.72 µM in assay [3]; 12.4 µM in assay [4]; 0.35 µM in assay [5]; 2 µM in assay [7]. For the same compound, the figures for the GI50 in assay [8], in [9] and in [10] were 1.21 µM, 12.4 µM and 3.74 µM, respectively. Besides, the TGI in [1] came to 2.48 µM; in assay [2], 15.5 µM; in assay [3], 16.6 µM; in assay [4], 32.7 µM; in assay [5] it was 2.66 µM; in [7] it was 12.2 µM. Further, the results for the TGI in [8], in assay [9] and in [10] were 4.53 µM, 25.2 µM and 16 µM, respectively.
On to `Cc1c(-c2nnc(-c3cc(Cl)c(Cl)cc3Cl)o2)nnn1-c1ccnc2c(C(F)(F)F)cccc12`, for which the GI50 in assay [1] is 31.4 µM; in assay [2] it was 22.3 µM; in [3], 31.5 µM; in [4], 19.2 µM; in assay [5], 20.6 µM; in assay [7] it was 20.3 µM. Moreover, the GI50 in assay [8] is 19.9 µM; in assay [9], 18.5 µM; in assay [10], 31.4 µM. In addition, the TGI in [1] is 94.8 µM; in assay [2], 42.2 µM; in [3], above 100 µM; in assay [4], 51.1 µM; in assay [5], 47.5 µM; in assay [7] it was 45.1 µM. In addition, the TGI in assay [8] was 54.1 µM; in [9], 34.4 µM; in assay [10] it was above 100 µM.
Regarding `O=C(O)c1ccccc1Nc1ccc2nnc(-c3ccncc3)n2n1`, the GI50 was 3.22 µM in [1]; 5.66 µM in assay [2]; 6.88 µM in assay [3]; 7.97 µM in assay [4]; 5.23 µM in assay [5]; 3.18 µM in assay [6]. For the same compound, the results for the GI50 in assay [7], in assay [9] and in assay [10] were 2.85 µM, 14.6 µM and 3.56 µM, respectively. Further, the TGI in [1] was 11.7 µM; in assay [2], 24.2 µM; in assay [3] it was 66.3 µM; in assay [4] it was 26.3 µM; in assay [5] it was above 100 µM; in [6] it was 9.98 µM. Further, the values for the TGI in assay [7], in assay [9] and in assay [10] were 24.6 µM, 55.8 µM and 17.1 µM, respectively.
